Test results: patent publication US20260258032A1, “TYROSINE KINASE 2 INHIBITORS AND USES THEREOF” (BIOGEN MA INC., priority 2022, published 2026)
Counter-ions that a name gives are not always drawn.

Key:
JH2 domain of human Tyk2 = molecular target: T1, JH2 domain of human Tyk2 (Homo sapiens, UniProt P29597); assay: JH2 biochemical assay (TR-FRET probe displacement); assay type: binding
T1 construct: 10×His-tagged TYK2 JH2 domain (amino acid 575-876)
Protocol: The inhibitory potency of compounds of the disclosure against the kinase activity of recombinantly generated JH2 domain of human Tyk2 was evaluated in a plate-based assay using a TR-FRET assay platform. Briefly, 2 nM of recombinant JH2 domain [10×His-tagged TYK2 JH2 domain (amino acid 575-876)] was combined with 2 nM probe ((S)-6-amino-9-(2-carboxy-4-((1-(3-(8-methyl-5-(methylamino)-8H-imidazo[4,5-d]thiazolo[5,4-b]pyridin-2-yl)phenyl)ethyl)carbamoyl)phenyl)-3-iminio-5-sulfo-3H-xanthene-4-sulfonate), 0.1 nM Tb-labeled anti-His antibody, and compounds of disclosure for 60 minutes. Compounds are tested at either […] top concentration, 10 points of 3-fold dilution. The TR-FRET signal […] by compounds and signal was calculated by taking the ratio of fluorescence at 520 nm and 495 nm. The data was normalized and the percent activity versus log concentration of compound was fitted with a 4-parameter logistic model to generate IC50 curves.

[1] = system: Tyk2 kinase activity on STAT4; assay: pSTAT4 cell assay (MSD, NK92 cells); assay type: cell-based; conditions: compounds 1 hr
Protocol: The inhibitory potency of compounds of the disclosure against the Tyk2 kinase activity on STAT4 was evaluated using an MSD-platform plate-based assay format. NK92 cells natively expressing STAT4 and Tyk2 were serum-starved to reduce background phosphorylation levels, then cells were treated compounds for 1 hr with a 10-point four-fold dilution series starting at 10 μM. Cells were then stimulated with 30 ng/mL IL2 for 15 minutes. Cells were lysed and […] levels were quantitated using an MSD plate-based assay with anti-STAT4 antibodies. The data were normalized and the percent activity versus log concentration of compound were fitted with a 4-parameter logistic model to generate to generate IC50 curves.

[2] = TR-FRET probe displacement, JH2 domain of human Tyk2

T1 sequence (P29597 575-876): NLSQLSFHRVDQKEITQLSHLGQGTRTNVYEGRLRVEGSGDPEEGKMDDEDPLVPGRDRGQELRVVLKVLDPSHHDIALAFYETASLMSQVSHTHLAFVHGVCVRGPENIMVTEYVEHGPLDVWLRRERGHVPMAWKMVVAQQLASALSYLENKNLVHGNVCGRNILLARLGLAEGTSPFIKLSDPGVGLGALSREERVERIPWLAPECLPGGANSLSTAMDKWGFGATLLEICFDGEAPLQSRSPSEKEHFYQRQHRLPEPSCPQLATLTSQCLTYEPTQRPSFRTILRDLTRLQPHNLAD

Row | Structure (SMILES) | IC50 (JH2 domain of human Tyk2; JH2 biochemical assay) [nM] | IC50 ([1]; stimulated 15 minutes) [nM] | IC50 (JH2 domain of human Tyk2; [2]) [nM] | IC50 ([1]; then stimulated 15 minutes) [nM]
1 | CCOCCc1cc(N2CC3(CC3)c3cnc(NC(C)=O)cc32)nc(C(C)(F)F)n1 [Example 330, N-(1′-(2-(1,1-difluoroethyl)-6-(2-ethoxyethyl)pyrimidin-4-yl)-1′,2′-dihydrospiro[cyclopropane-1,3′-pyrrolo[3,2-c]pyridin]-6′-yl)acetamide trifluoroacetate] | ≤ 10 | 10 to 100 |  | 
2 | CC(=O)Nc1cc2c(cn1)C1(CC1)CN2c1cc(C)cc(N2CCC(O)C2)n1 (centres unmarked) [Example 189, N-(1′-(6-(3-hydroxypyrrolidin-1-yl)-4-methylpyridin-2-yl)-1′,2′-dihydrospiro[cyclopropane-1,3′-pyrrolo[3,2-c]pyridin]-6′-yl)acetamide] | 10 to 100 | ≥ 1000 |  | 
3 | COC1CC(c2nc(C)cc(N3CC4(CC4)c4cnc(NC(C)=O)cc43)n2)C1 (centres unmarked) [Example 317, N-(1′-(2-(3-methoxycyclobutyl)-6-methylpyrimidin-4-yl)-1′,2′-dihydrospiro[cyclopropane-1,3′-pyrrolo[3,2-c]pyridin]-6′-yl)acetamide] | ≤ 10 | 100 to 1000 |  | 
4 | CC(=O)Nc1cc2c(cn1)C1(CC1)CN2c1cc(NCC2CCN2C)nc(C(C)(F)F)n1 (centres unmarked) [Example 174, N-(1′-(2-(1,1-difluoroethyl)-6-(((1-methylazetidin-2-yl)methyl)amino)pyrimidin-4-yl)-1′,2′-dihydrospiro[cyclopropane-1,3′-pyrrolo[3,2-c]pyridin]-6′-yl)acetamide] | 10 to 100 | ≥ 1000 |  | 
5 | CCC1(C#N)CN(c2cc(C)cc(N3CC4(CC4)c4cnc(NC(C)=O)cc43)n2)C1 [Example 197, N-(1′-(6-(3-cyano-3-ethylazetidin-1-yl)-4-methylpyridin-2-yl)-1′,2′-dihydrospiro[cyclopropane-1,3′-pyrrolo[3,2-c]pyridin]-6′-yl)acetamide] | 10 to 100 | ≥ 1000 |  | 
6 | CC(=O)Nc1cc2c(cn1)C1(CC1)CN2c1cc(C)nc(N2CC(C(F)F)C2)n1 [Example 222, N-(1′-(2-(3-(difluoromethyl)azetidin-1-yl)-6-methylpyrimidin-4-yl)-1′,2′-dihydrospiro[cyclopropane-1,3′-pyrrolo[3,2-c]pyridin]-6′-yl)acetamide] | 10 to 100 | ≥ 1000 |  | 
7 | CC(=O)Nc1cc2c(cn1)C1(CC1)CN2c1cc(C)nc(OC2CCOC2)n1 (centres unmarked) [Example 374, N-(1′-(6-methyl-2-((tetrahydrofuran-3-yl)oxy)pyrimidin-4-yl)-1′,2′-dihydrospiro[cyclopropane-1,3′-pyrrolo[3,2-c]pyridin]-6′-yl)acetamide trifluoroacetate] |  |  | 10 to 100 | ≥ 1000
8 | CC(=O)Nc1cc2c(cn1)C1(CC1)CN2c1cc(-c2cn[nH]c2)nc(C(C)(F)F)n1 [Example 395, N-(1′-(2-(1,1-difluoroethyl)-6-(1H-pyrazol-4-yl)pyrimidin-4-yl)-1′,2′-dihydrospiro[cyclopropane-1,3′-pyrrolo[3,2-c]pyridin]-6′-yl)acetamide trifluoroacetate] |  |  | ≤ 10 | 10 to 100
9 | COCCNc1cc(C)cc(N2CC3(CC3)c3cnc(NC(C)=O)cc32)n1 [Example 191, N-(1′-(6-((2-methoxyethyl)amino)-4-methylpyridin-2-yl)-1′,2′-dihydrospiro[cyclopropane-1,3′-pyrrolo[3,2-c]pyridin]-6′-yl)acetamide] | 100 to 1000 | ≥ 1000 |  | 
10 | CC(=O)Nc1cc2c(cn1)C1(CC1)CN2c1cc(Cl)nc(C(C)(C)F)n1 [Example 283, N-(1′-(6-chloro-2-(2-fluoropropan-2-yl)pyrimidin-4-yl)-1′,2′-dihydrospiro[cyclopropane-1,3′-pyrrolo[3,2-c]pyridin]-6′-yl)acetamide] | ≤ 10 | 100 to 1000 |  | 
11 | CC(=O)Nc1cc2c(cn1)C1(CC1)CN2c1cc(C)cc(OCC(C)(F)F)n1 [Example 356, N-(1′-(6-(2,2-difluoropropoxy)-4-methylpyridin-2-yl)-1′,2′-dihydrospiro[cyclopropane-1,3′-pyrrolo[3,2-c]pyridin]-6′-yl)acetamide trifluoroacetate] | 10 to 100 | ≥ 1000 |  | 
12 | CC(=O)Nc1cc2c(cn1)C1(CC1)CN2c1cc(C)nc(-c2cnn(CC3CC3)c2)n1 [Example 253, N-(1′-(2-(1-(cyclopropylmethyl)-1H-pyrazol-4-yl)-6-methylpyrimidin-4-yl)-1′,2′-dihydrospiro[cyclopropane-1,3′-pyrrolo[3,2-c]pyridin]-6′-yl)acetamide trifluoroacetate] | 10 to 100 | ≥ 1000 |  | 
13 | CC(=O)Nc1cc2c(cn1)C1(CC1)CN2c1cc(CC#N)nc(C(C)(F)F)n1 [Example 303, N-(1′-(6-(cyanomethyl)-2-(1,1-difluoroethyl)pyrimidin-4-yl)-1′,2′-dihydrospiro[cyclopropane-1,3′-pyrrolo[3,2-c]pyridin]-6′-yl)acetamide] | 10 to 100 | ≥ 1000 |  | 
14 | CC(=O)Nc1cc2c(cn1)C1(CC1)CN2c1cc(C)nc(-c2ccncc2)n1 [Example 107, N-(1′-(6-methyl-2-(pyridin-4-yl)pyrimidin-4-yl)-1′,2′-dihydrospiro[cyclopropane-1,3′-pyrrolo[3,2-c]pyridin]-6′-yl)acetamide] |  | ≥ 1000 |  | 
15 | CC(=O)Nc1cc2c(cn1)C1(CC1)CN2c1cc(Oc2ccnnc2)nc(C(C)(F)F)n1 [Example 147, N-(1′-(2-(1,1-difluoroethyl)-6-(pyridazin-4-yloxy)pyrimidin-4-yl)-1′,2′-dihydrospiro[cyclopropane-1,3′-pyrrolo[3,2-c]pyridin]-6′-yl)acetamide trifluoroacetate] |  | ≥ 1000 |  | 
16 | CC(=O)Nc1cc2c(cn1)C1(CC1)CN2c1cc(C)nc(C2CC2(C)C)n1 (centres unmarked) [Example 124, N-(1′-(2-(2,2-dimethylcyclopropyl)-6-methylpyrimidin-4-yl)-1′,2′-dihydrospiro[cyclopropane-1,3′-pyrrolo[3,2-c]pyridin]-6′-yl)acetamide] |  | 10 to 100 |  | 
17 | CO[C@H]1C[C@H](Oc2cc(N3CC4(CC4)c4cnc(NC(C)=O)cc43)nc(C(C)(F)F)c2)C1 [Example 92, N-(1′-(6-(1,1-difluoroethyl)-4-((1r,3r)-3-methoxycyclobutoxy)pyridin-2-yl)-1′,2′-dihydrospiro[cyclopropane-1,3′-pyrrolo[3,2-c]pyridin]-6′-yl)acetamide] |  | 10 to 100 |  | 
18 | CC(=O)Nc1cc2c(cn1)C1(CC1)CN2c1cc(CCCO)nc(C(C)(F)F)n1 [Example 295, N-(1′-(2-(1,1-difluoroethyl)-6-(3-hydroxypropyl)pyrimidin-4-yl)-1′,2′-dihydrospiro[cyclopropane-1,3′-pyrrolo[3,2-c]pyridin]-6′-yl)acetamide] |  | 10 to 100 |  | 
19 | CC(=O)Nc1cc2c(cn1)C1(CC1)CN2c1cc(C)nc(-c2cnc(C)s2)n1 [Example 255, N-(1′-(6-methyl-2-(2-methylthiazol-5-yl)pyrimidin-4-yl)-1′,2′-dihydrospiro[cyclopropane-1,3′-pyrrolo[3,2-c]pyridin]-6′-yl)acetamide trifluoroacetate] |  | ≥ 1000 |  | 
20 | CC(=O)Nc1cc2c(cn1)C1(CC1)CN2c1cc(C)nc(-c2cccc(F)c2)n1 [Example 111, N-(1′-(2-(3-fluorophenyl)-6-methylpyrimidin-4-yl)-1′,2′-dihydrospiro[cyclopropane-1,3′-pyrrolo[3,2-c]pyridin]-6′-yl)acetamide] |  | ≥ 1000 |  | 
21 | COC1(c2cc(C)cc(N3CC4(CC4)c4cnc(NC(C)=O)cc43)n2)CCOC1 (centres unmarked) [Example 96, N-(1′-(6-(3-methoxytetrahydrofuran-3-yl)-4-methylpyridin-2-yl)-1′,2′-dihydrospiro[cyclopropane-1,3′-pyrrolo[3,2-c]pyridin]-6′-yl)acetamide] |  | 10 to 100 |  | 
22 | CC(=O)Nc1cc2c(cn1)C1(CC1)CN2c1cc(Oc2cnccn2)nc(C(C)(F)F)n1 [Example 146, N-(1′-(2-(1,1-difluoroethyl)-6-(pyrazin-2-yloxy)pyrimidin-4-yl)-1′,2′-dihydrospiro[cyclopropane-1,3′-pyrrolo[3,2-c]pyridin]-6′-yl)acetamide] |  | ≥ 1000 |  | 
23 | CC(=O)Nc1cc2c(cn1)C1(CC1)CN2c1cc(C)nc(OCC2COC2)n1 [Example 366, N-(1′-(6-methyl-2-(oxetan-3-ylmethoxy)pyrimidin-4-yl)-1′,2′-dihydrospiro[cyclopropane-1,3′-pyrrolo[3,2-c]pyridin]-6′-yl)acetamide trifluoroacetate] |  | 100 to 1000 |  | 
24 | CC(=O)Nc1cc2c(cn1)C1(CC1)CN2c1cc(C)nc(-c2coc(C)n2)n1 [Example 109, N-(1′-(6-methyl-2-(2-methyloxazol-4-yl)pyrimidin-4-yl)-1′,2′-dihydrospiro[cyclopropane-1,3′-pyrrolo[3,2-c]pyridin]-6′-yl)acetamide] |  | 100 to 1000 |  | 
25 | CC(=O)Nc1cc2c(cn1)C1(CC1)CN2c1cc(C)nc(N(C)C(C)C)n1 [Example 115, N-(1′-(2-(isopropyl(methyl)amino)-6-methylpyrimidin-4-yl)-1′,2′-dihydrospiro[cyclopropane-1,3′-pyrrolo[3,2-c]pyridin]-6′-yl)acetamide] |  | ≥ 1000 |  | 
